Laboratory results from patent US8722671B2, “Isoquinoline derivatives” (Sanofi, priority 2005, dated 2014).

molecular target: T1, ROCKII or ROKα (Homo sapiens, UniProt O75116); assay: Determination of Rho kinase inhibition (33P-ATP Streptavidin Flash Plate assay); type: biochemical; conditions: ATP 40 μM, activity denoted as pIC50 class
T1 construct: purchased Upstate 14-451
Procedure: Determination of Rho Kinase Inhibition
To measure Rho-kinase inhibition, IC50 values were determined according to the following protocol:
Buffer: 25 mM Tris pH7.5; 0.02% BSA; 5% Glycerol; 0.008% Triton X100; 2% DMSO, 1 mM DTT; 1 mM MgCl2; 0.5 μCi/well γ^33P ATP
Enzyme: ROCKII or ROKα) (Upstate, Catalog #14-451 Lot #24880U) 0.1 ng/μl
Final concentration of ATP in reaction mixture 40 μM
Biotinylated substrate, diluted to 0.25 μM with buffer described above (without ATP)
• 1. 10 μl Tris buffer (±Inhibitor) • 2. Add 30 μl of enzyme solution • 3. Start the reaction with 30 μL of mix substrate/ATP/ATP33 • 4. Incubate for 20 min at room temperature • 5. Stop reaction with 30 μL of 50 mM EDTA • 6. Transfer 50 μL of stopped solution to Streptavidin Flash Plate plus, Perkin Elmer, SMP 103A • 7. Incubate for 30 min at RT • 8. Wash 4 times with 300 μl of PBS/0.1% Tween 20 • 9. Radioactivity in the well was determined

T1 sequence (O75116 11-552 limits assumed): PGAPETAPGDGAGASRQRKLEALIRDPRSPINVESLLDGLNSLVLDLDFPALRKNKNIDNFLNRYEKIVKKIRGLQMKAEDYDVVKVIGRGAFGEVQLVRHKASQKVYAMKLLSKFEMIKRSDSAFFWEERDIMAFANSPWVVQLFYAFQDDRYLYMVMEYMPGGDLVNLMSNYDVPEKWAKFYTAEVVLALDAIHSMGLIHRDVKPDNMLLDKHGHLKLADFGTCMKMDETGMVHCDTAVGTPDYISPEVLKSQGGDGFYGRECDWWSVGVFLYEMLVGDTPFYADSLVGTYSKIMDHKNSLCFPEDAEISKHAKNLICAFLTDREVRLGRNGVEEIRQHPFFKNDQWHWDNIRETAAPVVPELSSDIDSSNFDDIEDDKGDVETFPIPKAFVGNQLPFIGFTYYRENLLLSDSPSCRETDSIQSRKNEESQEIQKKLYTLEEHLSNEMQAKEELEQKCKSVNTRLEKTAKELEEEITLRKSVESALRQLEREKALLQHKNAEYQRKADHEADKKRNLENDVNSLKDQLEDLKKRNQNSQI

| SMILES | IC50 |
| --- | --- |
| c1ccc(Cc2c(OC3CCNCC3)ccc3cnccc23)cc1 [Compound 29, 5-Benzyl-6-(piperidin-4-yloxy)-isoquinoline] | +++ (5.0≦pIC50<6.0) |
| Brc1c(OC2CCNCC2)ccc2cnccc12.Cl [Compound 41] | ++++ (6.0≦pIC50) |
| Cl.Ic1c(OC2CCNCC2)ccc2cnccc12 [Compound 44] | ++++ (6.0≦pIC50) |
| O=C(O)C(F)(F)F.c1ccc2oc(-c3c(OC4CCNCC4)ccc4cnccc34)cc2c1 [Compound 59] | ++++ (6.0≦pIC50) |
| OCc1cccc(-c2c(OC3CCNCC3)ccc3cnccc23)c1 [Compound 67] | +++ (5.0≦pIC50<6.0) |
| COc1ccc(-c2c(OC3CCNCC3)ccc3cnccc23)cc1N [Compound 72] | ++++ (6.0≦pIC50) |
| c1ccc(-c2cc3cnccc3cc2OC2CCNCC2)cc1 [Compound 81] | ++++ (6.0≦pIC50) |
| O=C(O)C(F)(F)F.c1ccc(C(CN2CCC(Oc3ccc4cnccc4c3)CC2)c2ccccc2)cc1 [Compound 100] | +++ (5.0≦pIC50<6.0) |
| FC(F)(F)CCN1CCC(Oc2ccc3cnccc3c2)CC1.O=C(O)C(F)(F)F [Compound 111] | +++ (5.0≦pIC50<6.0) |
| COc1ccc2cc(CN3CCC(Oc4ccc5cnccc5c4)CC3)ccc2c1.O=C(O)C(F)(F)F [Compound 120] | ++++ (6.0≦pIC50) |
| Cc1cc(OC2CCNCC2)c(C)c2ccncc12.Cl [Compound 133] | ++++ (6.0≦pIC50) |
| Cc1c(OC2CCNCC2)cc2ccncc2c1C.Cl [Compound 134] | +++ (5.0≦pIC50<6.0) |
| CN1CCCC(COc2ccc3cnccc3c2Br)C1.O=C(O)C(F)(F)F (stereo not drawn) [Compound 138] | ++++ (6.0≦pIC50) |
| O=C(O)C(F)(F)F.c1cc2cc(OC3CCCNC3)ccc2cn1 (stereo not drawn) [Compound 145] | +++ (5.0≦pIC50<6.0) |
| Cl.Clc1cncc2ccc(OC3CCNCC3)cc12 [Compound 156, 4-Chloro-6-(piperidin-4-yloxy)-isoquinoline hydrochloride] | ++++ (6.0≦pIC50) |
| COc1cc(Nc2cc3cc(OC4CCNCC4)ccc3cn2)cc(OC)c1OC [Compound 228] | ++++ (6.0≦pIC50) |
| Cl.c1cc2c(cc1Nc1cc3cc(OC4CCNCC4)ccc3cn1)OCO2 [Compound 261] | ++++ (6.0≦pIC50) |
| COc1cccc(Nc2cc3c(C4CC4)c(OC4CCNCC4)ccc3cn2)c1.Cl [Compound 265] | +++ (5.0≦pIC50<6.0) |
| CCc1cncc2ccc(OC3CCNCC3)cc12.Cl [Compound 266, 4-Ethyl-6-(piperidin-4-yloxy)-isoquinoline] | +++ (5.0≦pIC50<6.0) |
| Cl.Clc1cc(OC2CCNCC2)cc2ccncc12 [Compound 269, 8-Chloro-6-(Piperidin-4-yloxy)-isoquinoline hydrochloride] | ++++ (6.0≦pIC50) |
| Clc1cc2cnccc2c(Cl)c1OC1CCNCC1 [Compound 378, 5,7-Dichloro-6-(piperidin-4-yloxy)-isoquinoline] | ++++ (6.0≦pIC50) |
